Tests used:
[1] = tested on: PTEN-mutated MFE-319 cells; assay: dose-dependent apoptosis induction; type: cell-based, human; details: MFE-319, 48 hour, compared to control
[2] = tested on: NF1 mutant cell lines; assay: growth inhibition assay, summary over the panel; type: cell-based; details: Homo sapiens; NF1 mutant cell lines except for MDA-MB-231 cells; read-out: IC50 value
Text: In order to investigate the growth inhibitory effect of Compound (1) in NF1 mutant cancer cell lines, the IC50 values of growth inhibition assay were obtained and compared then in Table 2.
In this experiment, to compare the growth inhibitory effect of Compound (1) with those of MAPK and PI3K signaling inhibitors, the IC50 values of trametinib (as a MEK inhibitor), and Alpelisib (as a PI3K inhibitor) were obtained and compared.

[3] = tested on: LS180 human colorectal tumor xenografts; assay: antitumor effect in mice with LS180 xenograft tumors; type: in vivo; details: 80 mg/kg/day
Method: The oncogenic KRAS mutations are diverse, including not only G12C but also G12X and G13X in the mutation hotspot Glycine at […]. To determine whether Compound (1), which targets downstream of MAPK and PI3K signaling, is effective against G12D mutated cancers, an efficacy experiment of Compound (1) was conducted using subcutaneously transplanted LS180 tumor derived from colorectal cancers with KRAS G12D and PIK3CA and PTEN gene alterations.
Evaluation was conducted by comparing the efficacy of 80 mg/kg/day of Compound (1) with that of 1 mg/kg/day MEK inhibitor trametinib used as a reference group.

[4] = tested on: ER+/HER2− breast cancer cell lines; assay: immunoblotting, combination with fulvestrant, presence and absence of estrogen and NF1; type: cell-based; details: single agent; presence or absence of estrogen; NF1 wildtype and NF1 knockdown cells
Method: The actual standard of care for ER+/HER2− breast cancer uses the adjuvant therapies such as tamoxifen, letrozole, or fulvestrant. Patients with recurrent or refractory tumors are treated with additional use of CDK4/6 inhibitors or Alpelisib for PIK3CA-mutated cancers.

[5] = tested on: T47D cells (control and NF1 knockdown); assay: immunoblotting of target inhibition and apoptosis induction; type: cell-based
Method: To investigate the mechanism of action of Compound (1) in inhibiting the growth of NF1 knockdown breast cancer cells, Compound (1), trametinib, Alpelisib, and fulvestrant were exposed to NF1-knockdown MCF7 and T47D cells at indicated final concentration for 24 hours. NF1, pPRAS40 Thr246, pYB1 Ser102, pS6RP Ser235/236, ERα, and cleaved PARP were detected by immunoblotting.

[6] = tested on: cancer cell lines derived from various human cancer origins; assay: cell growth inhibition assay, cell panel, CellTiter Glo 2.0; type: cell-based; details: 72 hour, FIG. 4A
Method: Cell growth inhibition assay was conducted according to 72 hour-standard protocol by CellTiter Glo 2.0 Assay.

## CC(C)(C)NCCNc1ccc(-c2nnc(C(F)(F)F)o2)nc1C1CCN(c2ncnc3c2C(C)(C)C(=O)N3)CC1 [Compound (1), 4-(4-(3-((2-(tert-butylamino)ethyl)amino)-6-(5-(trifluoromethyl)-1,3,4-oxadiazol-2-yl)pyridin-2-yl)piperidin-1-yl)-5,5-dimethyl-5H-pyrolo[2,3-d]pyrimidin-6(7H)-one]
[1]
  levels of cleaved caspase-3 and cleaved PARP: increased cleaved caspase-3 and cleaved PARP in a concentration dependent manner
[2]
  IC50: < 1000 nM
[3]
  Number of deaths: 0
[3]; Day 15
  T/C ratio (%): 59%
[3]; qd Day 1-14, po
  Tumor volume (mm^3) Day 15 Mean ± SE: 867.8 ± 210.6 mm^3
[4]
  apoptosis induction: observed
[5]; T47D NF1 knockdown cells versus control cells
  apoptosis induction (cleaved PARP signal): remarkably higher level in NF1 knockdown cells than control cells
[5]; T47D, control and NF1 knockdown, 24 hours, immunoblot
  signals of pPRAS40, pYB1, and pS6RP (target inhibition): decreased the signals of pPRAS40, pYB1, and pS6RP in a concentration-dependent manner
[6]
  growth inhibition in cancer cell panel: potent growth inhibition

— patent US20240408100A1, “TREATMENT METHODS FOR SUBJECTS HAVING CANCER WITH A DYSREGULATED MAPK AND/OR PI3K PATHWAY” (TAIHO PHARMACEUTICAL CO., LTD., priority 2021, published 2024)
